# Measurements from patent US20200223826A1, “Glucose-6-Phosphate Dehydrogenase (G6PD)-Modulating Agents And Methods Of Treating G6PD Deficiency” (The Board of Trustees of the Leland Stanford Junior …, priority 2017, published 2020).
# Marks after values point to notes of the source that are not given here.
# Experiments:
# [1] = molecular target: T1, wt G6PD obtained from a blood sample (Homo sapiens, UniProt P11413); assay: G6PD enzyme activation on wt G6PD from a blood sample; assay type: biochemical; details: 100 uM compound
# T1 construct: tissue Stanford Blood Center; host or cells: blood / erythrocytes
# T1 sequence (P11413 2-515 limits assumed): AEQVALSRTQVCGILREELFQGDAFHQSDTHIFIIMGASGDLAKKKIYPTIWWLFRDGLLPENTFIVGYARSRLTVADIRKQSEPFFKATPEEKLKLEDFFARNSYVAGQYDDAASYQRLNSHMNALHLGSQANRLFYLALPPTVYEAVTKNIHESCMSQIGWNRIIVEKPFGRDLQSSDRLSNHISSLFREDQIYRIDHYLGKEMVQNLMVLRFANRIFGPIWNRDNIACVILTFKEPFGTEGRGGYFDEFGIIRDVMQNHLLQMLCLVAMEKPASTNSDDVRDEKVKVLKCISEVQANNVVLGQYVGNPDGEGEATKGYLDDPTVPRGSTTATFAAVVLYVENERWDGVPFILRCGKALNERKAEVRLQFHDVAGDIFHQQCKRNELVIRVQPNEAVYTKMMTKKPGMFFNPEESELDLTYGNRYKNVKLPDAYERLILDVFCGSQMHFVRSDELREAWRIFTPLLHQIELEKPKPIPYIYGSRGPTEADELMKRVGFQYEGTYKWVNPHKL
# Method: Enzyme activity was measured by monitoring NADPH production, which was coupled with diaphorase converting resazurin to fluorescent resorufin (excitation at 565 nm and emission at 590 nm); fluorescent signal was thus proportional to G6PD activity. Assays were performed at 25° C. and run for 5 minutes in buffer containing 50 mM Tris (pH 7.4), 0.5 mM EDTA, 3.3 mM MgCl2, 1 U/ml diaphorase, 0.1 mM resazurin. 10 ng of recombinant enzymes or 10 μg of cell lysates was used for the assay with 10 μM NADP^+ (Sigma) as cofactor and 100 μM G6P (Sigma) as substrate. […]
# De-identified blood samples were obtained from the Stanford Blood Center. […] G6PD activity was measured (Beutler E. Red cell metabolism: A manual of biochemical methods (3rd edition). Grune & Stratton (1984)). […] Hemoglobin release in the supernatant was monitored by measuring absorbance at 540 nm. […] After wash, the samples were lysed with 0.1% Triton X-100 (final concentration), and the florescence was analyzed with excitation/emission at 485/525 nm. GSH measurement was determined using a Cayman glutathione assay kit (Cayman Chemicals, 703002). […] The absorbance was read at 412 nm. For storage assay, a 5% erythrocyte suspension was stored at 4° C. with and without 1 μM AG1, and hemolysis and G6PD activity were monitored every week for 28 days to examine whether AG1 improves preservation of erythrocytes over time. […]
# [2] = molecular target: T2, Canton G6PD (Homo sapiens, UniProt P11413, R459L); assay: Canton G6PD enzyme activity, diaphorase-coupled assay; assay type: biochemical; details: Canton G6PD
# T2 construct: His (pET-28a) (N, cleaved yes); made in house; host or cells: E. coli C43 (DE3)
# T2 sequence (P11413 whole entry R459L): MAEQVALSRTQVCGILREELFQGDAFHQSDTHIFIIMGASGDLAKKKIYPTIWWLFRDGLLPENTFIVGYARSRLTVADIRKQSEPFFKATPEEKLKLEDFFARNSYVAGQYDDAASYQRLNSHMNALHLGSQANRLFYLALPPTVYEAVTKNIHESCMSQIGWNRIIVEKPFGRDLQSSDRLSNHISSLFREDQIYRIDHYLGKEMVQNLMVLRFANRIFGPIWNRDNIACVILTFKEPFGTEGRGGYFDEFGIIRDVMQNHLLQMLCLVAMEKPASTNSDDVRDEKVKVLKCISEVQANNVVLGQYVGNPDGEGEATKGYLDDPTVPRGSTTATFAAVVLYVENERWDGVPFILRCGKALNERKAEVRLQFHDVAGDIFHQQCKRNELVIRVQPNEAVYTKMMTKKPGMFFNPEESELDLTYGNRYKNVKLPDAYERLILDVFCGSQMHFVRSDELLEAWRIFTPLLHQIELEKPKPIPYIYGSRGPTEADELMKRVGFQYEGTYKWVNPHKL
# Method: (§1) Enzyme activity was measured by monitoring NADPH production, which was coupled with diaphorase converting resazurin to fluorescent resorufin (excitation at 565 nm and emission at 590 nm); fluorescent signal was thus proportional to G6PD activity. Assays were performed at 25° C. and run for 5 minutes in buffer containing 50 mM Tris (pH 7.4), 0.5 mM EDTA, 3.3 mM MgCl2, 1 U/ml diaphorase, 0.1 mM resazurin. 10 ng of recombinant enzymes or 10 μg of cell lysates was used for the assay with 10 μM NADP^+ (Sigma) as cofactor and 100 μM G6P (Sigma) as substrate. Steady-state kinetic parameters were obtained by varying concentrations of NADP^+ (0-10 μM) with a constant concentration of G6P (100 μM) and similarly for G6P (0-100 μM) with a constant concentration of NADP^+ (10 μM) with 10 ng of recombinant enzymes. Data analysis was performed using GraphPad Prism software v.6 (GraphPad Software, La Jolla, Calif. USA). Kinetic parameters were obtained by fitting the data to the Michaelis-Menten equation.
# The diaphorase-coupled enzyme assay as described above was used to screen a library of compounds for small molecule activators. The compounds were added to Canton G6PD enzyme reaction mixture at a final concentration of 16.67 μM using Caliper Life Sciences Staccato system with a Twister II robot and a Sciclone ALH3000 (Caliper Life Sciences, Alameda, Calif. USA) integrated with a V&P Scientific pin tool, which was followed by incubation for 3 hours. Addition of G6P then initiated the reaction, which was run for 2.5 minutes. The fluorescent signals were recorded 4 times during the run using Molecular Devices AnalystGT (Molecular Devices, Sunnyvale, Calif. USA). Any compounds showing 30% activation of the enzyme were rescreened in a dose-dependent manner (0-30 μM, duplicate) to identify potential hits.
# (§2) Based on preliminary results with compound AG1, a variety of compounds of interest were prepared and assessed in G6PD enzyme activation assays, according to the methods described herein.
# [3] = molecular target: T3, Canton W509A G6PD (Homo sapiens, UniProt P11413, R459L/W509A); assay: Canton W509A G6PD enzyme activation; assay type: biochemical
# T3 construct: His (pET-28a) (N, cleaved yes); made in house; host or cells: E. coli C43 (DE3)
# T3 sequence (P11413 whole entry R459L/W509A): as the sequence (P11413 whole entry R459L) above, with W509A counted along it
# Method: as §1, §2
# [4] = system: zebrafish embryos; assay: Pericardial edema in zebrafish embryos; assay type: in vivo; details: 50 μg/ml at 24 hpf
# Method: Embryos were dechorinated with pronase at 24 hours post fertilization (hpf) and treated with 50 μg/ml of chloroquine and/or AG1 by directly adding the compounds to the well. For ROS measurements, embryos were incubated with compounds for 2 hours, and then the ROS detecting reagent (CM-H2DCFDA) was added at a final concentration of 500 ng/ml to the well for a total treatment time of 5 hours. One embryo was placed to each well of a black, opaque 96-well plate. The florescence was analyzed with excitation/emission at 485/525 nm. After ROS assays, embryos at about 32 hpf were pooled and lysed in buffer containing 50 mM Tris (pH 7.4), 150 mM NaCl, 1 mM EDTA, 0.1% NP-40, and protease inhibitor cocktail, which was followed by three cycles of freeze and thawing in liquid nitrogen. The lysate was centrifuged at 14,000 rpm at 4° C. for 15 minutes. Total protein concentration in the supernatants (total lysate) was determined by Bradford method. 50 μg of total lysate was loaded onto 10% SDS-PAGE gels and the protein level was examined by Western blot using anti-G6PD antibody (Abcam (G6PD: AB87230)). 10 μg of total lysate was used for enzymatic assay. 50 μg of the lysate was used to measure NADPH levels using a NADPH quantification kit (Biovision), according to the manufacturer's instructions.
# Live embryos were anesthetized and mounted in 3% methylcellulose. Embryos were imaged with a Leica M205FA microscope equipped with a 1.0× Plan Apochromatic objective and a SPOT Flex camera or a Leica DM4500B compound microscope equipped with a QImaging Retiga-SRV camera. For hemoglobin staining, fixed embryos were stained with o-dianisidine as previously reported (10), cleared, mounted in 100% glycerol, and imaged with a Leica M205FA microscope equipped with a 1.0× Plan Apochromatic objective and a SPOT Flex camera. All images were captured using SPOT or MetaMorph imaging software (Diagnostic Imaging Inc.) and processed in Photoshop (Adobe). Adjustments were limited to brightness levels and cropping. Analysis was carried out by an observer blinded to the experimental conditions.
# [5] = system: point mutants of the Canton variant of G6PD; assay: Effect of point mutations of Canton G6PD on compound activity; assay type: biochemical, human; details: mutations on the side opposite the putative binding site
# Method: The gene encoding wild-type (WT) G6PD was inserted into the pET-28a vector, using NdeI and SalI restriction sites by polymerase chain reaction (PCR). Site-directed mutagenesis to generate G6PD variants was performed using appropriate primer sets according to the manufacturer's guidelines (Agilent). All constructs were verified by sequencing.
# as §1, with “equation. […]” for “equation.”
# [6] = system: G6PD; assay: G6PD activation activity, compounds with various linkers; assay type: biochemical; details: 100 uM compound
# Method: Enzyme activity was measured by monitoring NADPH production, which was coupled with diaphorase converting resazurin to fluorescent resorufin (excitation at 565 nm and emission at 590 nm); fluorescent signal was thus proportional to G6PD activity. Assays were performed at 25° C. and run for 5 minutes in buffer containing 50 mM Tris (pH 7.4), 0.5 mM EDTA, 3.3 mM MgCl2, 1 U/ml diaphorase, 0.1 mM resazurin. 10 ng of recombinant enzymes or 10 μg of cell lysates was used for the assay with 10 μM NADP^+ (Sigma) as cofactor and 100 μM G6P (Sigma) as substrate. […] Data analysis was performed using GraphPad Prism software v.6 (GraphPad Software, La Jolla, Calif. USA).
molecule,measurement,setting,value
c1cc(CNCCc2ccc3c(c2)OCO3)c2c(CNCCc3ccc4c(c3)OCO4)cccc2c1 [AR4-078],enzyme activity at 100 µM,[1],154%
same,AC50,[2],74 µM
same,Amax,[2],2.0
same,AC50,[3],58 µM
same,Amax,[3],3.8
"CCN(CC)CCCC(C)Nc1ccnc2cc(Cl)ccc12 (stereo not drawn) [chloroquine, reference compound]",effect of chloroquine on embryos,[4],led to pericardial edema and increased ROS levels
2-[2-(1H-indol-3-yl)ethylamino]ethanethiol [AG1],Enzyme activity (%),[1],127%
same,effect of mutations on AC50,[5],no effect on AC50
same,Enzyme activity (%),[6],156%^c
